Reference: ChEMBL document CHEMBL1152206, “Vasodilatation effect of farnesylacetones, active constituents of Sargassum siliquastrum, on the basilar and carotid arteries of rabbits” (Bioorg Med Chem Lett, 2008)

How the values were obtained:
[1] = Vasorelaxant activity against depolarization-induced carotid artery constriction in white rabbit; format: functional, tissue-based, Oryctolagus cuniculus
[2] = Vasorelaxant activity against depolarization-induced basilar artery constriction in white rabbit; format: functional, tissue-based, Oryctolagus cuniculus

| Compound | EC50 [1] [µM] | EC50 [2] [µM] |
| --- | --- | --- |
| CC(=O)CC/C=C(\C)CCC/C(C)=C\C(=O)CC(C)C | 14.5 | 3.72 |
| CC(=O)CC/C=C(\C)CCC/C(C)=C/C(=O)CC(C)C | 13.7 | 1.22 |
